Legend:
[1] = system: HeLa cells; test: Transfection efficiency with Luciferase (SecNLuc) mRNA, Nano-Glo assay (Method A); type: cell-based; settings: Luc mRNA, 24 h, luminescence; for Transfection 10 ng mRNA: 10 ng mRNA/well; for Transfection 50 ng mRNA: 50 ng mRNA/well; for Transfection 100 ng mRNA: 100 ng mRNA/well
How it was run: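 LNPs formulated by Method A carried SecNLuc mRNA at 100, 50 or 10 ng/well onto HeLa cells at 80% confluence, in triplicate. After 24 h, secreted NanoLuc in the medium was measured by Nano-Glo luminescence about 3 min after reagent addition.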

[2] = LNP size, PDI and zeta potential by Dynamic Light Scattering (Method A); type: physicochemical; settings: LNP formulated with the lipid, DLS
How it was run: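 LNPs formed by microfluidic mixing of ethanolic lipid mix with Luc mRNA in 10 mM citrate pH 4.0, about 12 ml/min total flow at 3:1 ratio. Particle size, PDI and zeta potential then measured by dynamic light scattering.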

| SMILES | Transfection 10 ng mRNA [1] | Transfection 50 ng mRNA [1] | Transfection 100 ng mRNA [1] | PDI [2] | Size (nm) [2] | Zeta potential (mV) [2] |
| --- | --- | --- | --- | --- | --- | --- |
| CCCCCCCC/C=C\CCCCCCCCOC(=O)C(C)(C)CC(OCCCCCCCC/C=C\CCCCCCCC)O[Si](C)(C)OCCCCCCN1CCCCC1 (stereo not drawn) [Example 87, (Z)-octadec-9-en-1-yl 4-((dimethyl((6-(piperidin-1-yl)hexyl)oxy)silyl)oxy)-2,2-dimethyl-4-(((Z)-octadec-9-en-1-yl)oxy)butanoate] | 5.68E+03 | 5.01E+04 | 9.96E+04 | 0.06 | 101.8 nm | −12.28 mV |
| CCCCCCCC/C=C\CCCCCCCCOC(=O)C(C)(C)CC(OCCCCCCCC/C=C\CCCCCCCC)O[Si](C)(C)OCCCCCCN(CCCO)CCCO (stereo not drawn) [Example 88, (Z)-octadec-9-en-1-yl 1-hydroxy-4-(3-hydroxypropyl)-12,12,16,16-tetramethyl-14-(((Z)-octadec-9-en-1-yl)oxy)-11,13-dioxa-4-aza-12-silaheptadecan-17-oate] | 6.30E+03 | 9.95E+04 | 5.10E+05 | 0.21 | 86.51 nm | −7.76 mV |
| CCCCCCCC/C=C\CCCCCCCCOC(=O)C(C)(C)CC(OCCCCCCCC/C=C\CCCCCCCC)O[Si](C)(C)OCCCCCCN1CCCCC1CO (stereo not drawn) [Example 89, (Z)-octadec-9-en-1-yl 4-((((6-(2-(hydroxymethyl)piperidin-1-yl)hexyl)oxy)dimethylsilyl)oxy)-2,2-dimethyl-4-(((Z)-octadec-9-en-1-yl)oxy)butanoate] | 1.10E+06 | 7.47E+06 | 1.54E+07 | 0.12 | 97.17 nm | −10.93 mV |
| CCCCCCCC/C=C\CCCCCCCCOC(=O)C(C)(C)CC(OCCCCCCCC/C=C\CCCCCCCC)O[Si](C)(C)OCCCCCCN1CCCC1CO (stereo not drawn) [Example 90, (Z)-octadec-9-en-1-yl 4-((((6-(2-(hydroxymethyl)pyrrolidin-1-yl)hexyl)oxy)dimethylsilyl)oxy)-2,2-dimethyl-4-(((Z)-octadec-9-en-1-yl)oxy)butanoate] | 2.84E+04 | 1.06E+06 | 4.86E+06 | 0.14 | 100.2 nm | −16.19 mV |
| CCCCCCCC/C=C\CCCCCCCCOC(=O)C(C)(C)CC(OCCCCCCCC/C=C\CCCCCCCC)O[Si](C)(C)OCCCCCCN(C)CCCCO (stereo not drawn) [Example 91, (Z)-octadec-9-en-1-yl 18-hydroxy-2,2,6,6,14-pentamethyl-4-(((Z)-octadec-9-en-1-yl)oxy)-5,7-dioxa-14-aza-6-silaoctadecanoate] | 7.02E+03 | 1.13E+05 | 7.45E+05 | 0.17 | 85.49 nm | −15.27 mV |
| CCCCCCCC/C=C\CCCCCCCCOC(=O)C(C)(C)CC(OCCCCCCCC/C=C\CCCCCCCC)O[Si](C)(C)OCCCCCCN(C)CC(O)CO (stereo not drawn) [Example 92, (Z)-octadec-9-en-1-yl 1,2-dihydroxy-4,12,12,16,16-pentamethyl-14-(((Z)-octadec-9-en-1-yl)oxy)-11,13-dioxa-4-aza-12-silaheptadecan-17-oate] | 3.35E+03 | 3.94E+04 | 1.65E+05 | 0.23 | 85.81 nm | −12.56 mV |

From US20260109721A1, “IONIZABLE CATIONIC LIPIDS INCORPORATING SILICON: SYNTHESIS AND LNP FORMULATION” (priority 2023, published 2026)
